Tested on: carrageenan induced paw edema
Assay: Anti-inflammatory activity: acute carrageenan induced paw edema in rats
Type: in vivo, Wister rats
Conditions: 10 mg kg^−1 indomethacin mol equivalent; for % inhibition of edema / Mean edema thickness: intraperitoneally; for Mean edema thickness: mean ± SE; for Potency (% inhibition of edema relative to that of indomethacin reference standard): at 4 h effect
Description: The anti-inflammatory activity of the tested compounds was determined in vivo by the acute carrageenan induced paw edema standard method in rats. See, Naumov, et al., Bioorg. Med. Chem. Lett, 25: 2314-2320 (2015), Tiwari, et al., Org. Biomol. Chem, 12: 7238-7249 (2014), Girgis, et al., Eur. J. Med. Chem, 50: 1-8 (2012), Barsoum, et al., Eur. J. Med. Chem, 44: 2172-2177 (2009), Girgis, et al., Eur. J. Med. Chem, 44: 1972-1977 (2009), Girgis, et al., Eur. J. Med. Chem, 44: 1257-1264 (2009), Girgis, et al., Eur. J. Med. Chem, 44: 91-100 (2009), Girgis, et al., Eur. J. Med. Chem, 43: 2116-2121 (2008), Girgis, et al., Bioorg. Med. Chem, 14: 8527-8532 (2006), and Barsoum, et al., Bioorg. Med. Chem, 14: 3929-3937 (2006).
Adult Wister rats of either sex (pregnant female animals were excluded) weighing 120-150 g were divided into 18 groups of 6 animals each. […] The control group was given DMSO only. Carrageenan paw edema was induced by subcutaneous injection of freshly prepared 1% solution of carrageenan in saline (0.9%, 0.1 ml per rat) into subplantar tissue of the right hind paw of rats. The thickness of the paw was measured (in mm) after successive time intervals (1, 2,3,4 and 24 h) and compared with the initial hind paw thickness of each rat for determining the edema thickness. Data were collected, checked, revised and analyzed. Quantitative variables from normal distribution were expressed as means±SE “standard error”. The anti-inflammatory activity was expressed as percentage inhibition of edema thickness in treated animals in comparison with the control group according to eqn. (1)
Where, Vc and Vt are the mean of edema paw thickness for the control and tested compound treated animal groups, respectively.

Row | SMILES | % inhibition of edema (1 h) [%] | Mean edema thickness (1 h) [mm] | % inhibition of edema (2 h) [%] | Mean edema thickness (2 h) [mm] | % inhibition of edema (3 h) [%] | Mean edema thickness (3 h) [mm] | % inhibition of edema (4 h) [%] | Mean edema thickness (4 h) [mm] | % inhibition of edema (24 h) [%] | Mean edema thickness (24 h) [mm] | Potency (% inhibition of edema relative to that of indomethacin reference standard)
1 | COc1ccc2c(c1)c(CC(=O)O)c(C)n2C(=O)c1ccc(Cl)cc1 [Compound 2] | 53 | 1.11 ± 0.12 | 59 | 0.85 ± 0.09 | 67 | 0.59 ± 0.06 | 87 | 0.18 ± 0.03 | 86 | 0.12 ± 0.02 | 100
2 | CC(C)Cc1ccc(C(C)C(=O)O)cc1 (stereo not shown) [Compound 3] | 20 | 1.93 ± 0.21 | 60 | 0.82 ± 0.13 | 65 | 0.63 ± 0.09 | 79 | 0.29 ± 0.01 | 14 | 0.71 ± 0.04 | –
3 | COc1cc(/C=C/C(=O)CC(=O)/C=C/c2ccc(O)c(OC)c2)ccc1O [Compound 4] | 12 | 2.12 ± 0.19 | 60 | 0.82 ± 0.11 | 75 | 0.45 ± 0.08 | 85 | 0.21 ± 0.08 | 36 | 0.53 ± 0.10 | 98
4 | COc1cc(/C=C/C(=O)CC(=O)/C=C/c2ccc(OC(=O)CNC(=O)OCc3ccccc3)c(OC)c2)ccc1OC(=O)CNC(=O)OCc1ccccc1 [Compound 5] | 64 | 0.87 ± 0.16 | 32 | 1.41 ± 0.19 | 37 | 1.13 ± 0.22 | 34 | 0.92 ± 0.20 | 0 | 0.83 ± 0.19 | 39
5 | COc1cc(/C=C/C(=O)CC(=O)/C=C/c2ccc(OC(=O)[C@H](C)NC(=O)OCc3ccccc3)c(OC)c2)ccc1OC(=O)[C@H](C)NC(=O)OCc1ccccc1 [Compound 6] | 56 | 1.05 ± 0.24 | 23 | 1.59 ± 0.21 | 22 | 1.40 ± 0.19 | 12 | 1.23 ± 0.25 | 0 | 0.83 ± 0.17 | 14
6 | COc1cc(/C=C/C(=O)CC(=O)/C=C/c2ccc(OC(=O)C(C)NC(=O)OCc3ccccc3)c(OC)c2)ccc1OC(=O)C(C)NC(=O)OCc1ccccc1 (stereo not shown) [Compound 7] | 72 | 0.67 ± 0.09 | 87 | 0.26 ± 0.07 | 97 | 0.05 ± 0.02 | 100 | 0.00 ± 0.00 | 100 | 0.00 ± 0.00 | 115
7 | COc1cc(/C=C/C(=O)CC(=O)/C=C/c2ccc(OC(=O)[C@@H](NC(=O)OCc3ccccc3)C(C)C)c(OC)c2)ccc1OC(=O)[C@@H](NC(=O)OCc1ccccc1)C(C)C [Compound 8] | 51 | 1.17 ± 0.26 | 20 | 1.65 ± 0.23 | 19 | 1.45 ± 0.20 | 12 | 1.23 ± 0.19 | 2 | 0.81 ± 0.11 | 14
8 | COc1cc(/C=C/C(=O)CC(=O)/C=C/c2ccc(OC(=O)[C@H](CC(C)C)NC(=O)OCc3ccccc3)c(OC)c2)ccc1OC(=O)[C@H](CC(C)C)NC(=O)OCc1ccccc1 [Compound 9] | 34 | 1.59 ± 0.18 | 10 | 1.85 ± 0.21 | 10 | 1.61 ± 0.18 | 11 | 1.25 ± 0.09 | 1 | 0.82 ± 0.08 | 13
9 | COc1cc(/C=C/C(=O)CC(=O)/C=C/c2ccc(OC(=O)[C@H](CCSC)NC(=O)OCc3ccccc3)c(OC)c2)ccc1OC(=O)[C@H](CCSC)NC(=O)OCc1ccccc1 [Compound 10] | 76 | 0.58 ± 0.15 | 80 | 0.41 ± 0.11 | 86 | 0.25 ± 0.08 | 88 | 0.17 ± 0.02 | 94 | 0.05 ± 0.01 | 101
10 | COc1cc(/C=C/C(=O)CC(=O)/C=C/c2ccc(OC(=O)[C@H](Cc3ccccc3)NC(=O)OCc3ccccc3)c(OC)c2)ccc1OC(=O)[C@H](Cc1ccccc1)NC(=O)OCc1ccccc1 [Compound 11] | 59 | 1.00 ± 0.07 | 24 | 1.56 ± 0.09 | 9 | 1.63 ± 0.16 | 5 | 1.38 ± 0.10 | 1 | 0.82 ± 0.13 | 6
11 | COc1cc(/C=C/C(=O)CC(=O)/C=C/c2ccc(OC(=O)[C@H](Cc3c[nH]c4ccccc34)NC(=O)OCc3ccccc3)c(OC)c2)ccc1OC(=O)[C@H](Cc1c[nH]c2ccccc12)NC(=O)OCc1ccccc1 [Compound 12] | 37 | 1.52 ± 0.27 | 28 | 1.48 ± 0.22 | 24 | 1.36 ± 0.26 | 12 | 1.23 ± 0.19 | 1 | 0.82 ± 0.17 | 14
12 | COc1cc(/C=C/C(=O)CC(=O)/C=C/c2ccc(OC(=O)CNC(=O)OCC3c4ccccc4-c4ccccc43)c(OC)c2)ccc1OC(=O)CNC(=O)OCC1c2ccccc2-c2ccccc21 [Compound 13] | 40 | 1.45 ± 0.15 | 62 | 0.78 ± 0.16 | 74 | 0.47 ± 0.11 | 79 | 0.29 ± 0.04 | 82 | 0.15 ± 0.02 | 91
13 | COc1cc(/C=C/C(=O)CC(=O)/C=C/c2ccc(OC(=O)[C@H](C)NC(=O)OCC3c4ccccc4-c4ccccc43)c(OC)c2)ccc1OC(=O)[C@H](C)NC(=O)OCC1c2ccccc2-c2ccccc21 [Compound 14] | 12 | 2.12 ± 0.29 | 23 | 1.59 ± 0.15 | 43 | 1.02 ± 0.17 | 56 | 0.62 ± 0.09 | 51 | 0.41 ± 0.05 | 64

Source: patent US10660967B2, “Curcumin conjugates and methods of use thereof” (priority 2016, dated 2020)
